Laboratory results from ChEMBL document CHEMBL1201862, “PubChem BioAssay data set” (2004).
“And” between values parts separate entries of the source, which are not always exact repeats. Identical values can stand only once. The source made the active and inactive calls.

Experiments:
Kallikrein-7 = Kallikrein-7 (Homo sapiens, UniProt P49862); assay: Fluorescence Intensity-based biochemical primary high throughput dose response assay to identify activators of kallikrein-7 (K7) zymogen.
Streptokinase A = molecular target: T1, Streptokinase A (Streptococcus pyogenes serotype M1, UniProt P10520); assay: S. pyogenes streptokinase expression inhibitors, potency, dose response, plasminogen activation absorbance, OD405 (AID 1914); type: functional, Streptococcus pyogenes M1 GAS;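 also: secreted streptokinase activity via plasminogen activation per viability signal from cell pellet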
T1 sequence (P10520 whole entry): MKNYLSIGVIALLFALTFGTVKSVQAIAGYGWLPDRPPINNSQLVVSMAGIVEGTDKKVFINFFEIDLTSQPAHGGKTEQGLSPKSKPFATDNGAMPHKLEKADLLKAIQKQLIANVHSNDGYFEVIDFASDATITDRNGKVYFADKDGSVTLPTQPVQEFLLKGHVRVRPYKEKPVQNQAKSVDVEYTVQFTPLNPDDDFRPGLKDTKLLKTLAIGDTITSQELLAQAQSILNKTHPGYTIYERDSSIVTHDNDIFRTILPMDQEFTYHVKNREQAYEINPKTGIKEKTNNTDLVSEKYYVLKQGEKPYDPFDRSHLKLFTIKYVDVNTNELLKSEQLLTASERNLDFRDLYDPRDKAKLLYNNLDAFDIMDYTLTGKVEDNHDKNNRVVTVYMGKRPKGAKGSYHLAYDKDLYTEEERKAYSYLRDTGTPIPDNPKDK

[1] = molecular target: Disintegrin and metalloproteinase domain-containing protein 17 (Homo sapiens, UniProt P78536); assay: ADAM17 protease inhibitors, dose response, counter-screen for ADAM10 exosite inhibitor project, biochemical, quenched FRET substrate (AID 743253)
[2] = cytotoxicity toward NIH3T3 fibroblasts, dose response, counter-screen, cell-based, ATP luminescence, mouse fibroblasts (AID 2010); type: functional;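 also: cells exposed to compound for about 90 hours before reading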
Streptococcus = assay: Group A Streptococcus viability loss, dose response, counter-screen for streptokinase expression inhibitor project, luminescence, BacTiterGlo (AID 1915); type: functional, organism-based;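 also: potency for reduction of bacterial viability or growth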
[3] = tested on: Streptococcus sp. 'group A'; assay: growth inhibition of control SK(-) GAS strain, dose response, counter-screen for streptokinase expression inhibitor project, luminescence, kanamycin, BacTiterGlo, confirmation (AID 1900); type: functional, organism-based
[4] = inhibitors of intracellular T. cruzi replication, confirmation, NIH3T3 host cells, beta-gal luminescence (AID 2044); type: functional, cell-based;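 also: intracellular parasites grown in NIH/3T3 mouse fibroblasts as host cells; luminescent beta-galactosidase reporter signal from transgenic T. cruzi replicating inside host cells; inhibitors lower the luminescence signal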
Large T antigen = Large T antigen (Simian virus 40, UniProt P03070); type: functional, Betapolyomavirus macacae;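 also: Confirmatory-stage PubChem screen for compounds that inhibit SV40 T antigen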
[5] = molecular target: Glutathione-S-transferase (Schistosoma japonicum, UniProt Q26513); assay: biotin-GST/anti-GST TR-FRET signal inhibitors, dose response, artefact control for Vif-APOBEC3G degradation inhibitor project, biochemical (AID 1117362); type: functional
Protein Tat = molecular target: T2, Protein Tat (Human immunodeficiency virus type 1 group M subtype B (isolate HXB2)(HIV-1), UniProt P04608); type: functional;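 also: tat binding to TAR RNA read out by fluorescence polarization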
T2 sequence (P04608 whole entry): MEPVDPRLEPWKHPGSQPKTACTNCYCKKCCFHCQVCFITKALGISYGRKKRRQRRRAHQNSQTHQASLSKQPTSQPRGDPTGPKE

[6] = SK-MEL-5 parental line viability, dose response, MITF inhibitor project, cell-based, CellTiter-Glo, dry powder, set 6 (AID 624429); type: functional
[7] = MALME3 melanoma cell viability reduction, dose response, orthogonal assay for MITF inhibitor project, CellTiter-Glo luminescence, dry powder, set 5 (AID 651584); type: functional, cell-based; conditions: MALME-3
INS1 = assay: beta cell apoptosis inhibitors, cytokine rescue, dose response, luminescence, retest (AID 449756); type: functional, cell-based; conditions: Rattus norvegicus;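 also: cell death triggered by IL-1 beta plus TNF-alpha plus IFN-gamma mixture; protective hits raise ATP signal compared with cytokine alone wells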
[8] = MITF Orthogonal Assay: MALME3 CTG Assay Measured in Cell-Based System Using Plate Reader - 2084-04_Inhibitor_Dose_DryPowder_Activity_Set6.; type: functional; conditions: MALME-3
[9] = molecular target: T3, Microphthalmia-associated transcription factor (Homo sapiens, UniProt O75030); assay: TRPM1 promoter luciferase signal decrease, dose response, MITF inhibitor project, cell-based, SK-MEL-5, cherry-picked, set 3 (AID 493073); type: functional
T3 sequence (O75030 whole entry): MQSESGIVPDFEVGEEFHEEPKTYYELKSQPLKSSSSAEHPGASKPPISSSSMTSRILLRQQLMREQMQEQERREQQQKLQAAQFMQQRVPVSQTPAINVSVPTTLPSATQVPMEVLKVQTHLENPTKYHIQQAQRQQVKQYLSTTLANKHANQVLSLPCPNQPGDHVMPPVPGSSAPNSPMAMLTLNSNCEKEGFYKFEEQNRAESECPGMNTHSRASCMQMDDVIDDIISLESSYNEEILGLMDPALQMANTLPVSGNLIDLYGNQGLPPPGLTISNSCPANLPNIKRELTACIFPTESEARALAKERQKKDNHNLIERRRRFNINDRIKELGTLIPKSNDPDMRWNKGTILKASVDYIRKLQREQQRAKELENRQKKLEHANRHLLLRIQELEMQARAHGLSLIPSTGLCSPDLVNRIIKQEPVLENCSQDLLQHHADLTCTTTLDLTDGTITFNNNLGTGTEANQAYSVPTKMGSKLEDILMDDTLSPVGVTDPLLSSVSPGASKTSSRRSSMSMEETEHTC

[10] = MITF Orthogonal Assay: SK-MEL-5 CTG Assay Measured in Cell-Based System Using Plate Reader - 2084-02_Inhibitor_Dose_DryPowder_Activity_Set5.; type: functional
[11] = TRPM1 promoter luciferase reporter signal decrease, dose response, MITF inhibitor project, cell-based, SK-MEL-5, dry powder, set 9 (AID 651588); type: functional
[12] = A375 melanoma cell viability loss, dose response, counter-screen for MITF inhibitor project, CellTiter-Glo luminescence, dry powder, set 4 (AID 624364); type: functional, cell-based; conditions: A-375;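 also: A375 melanoma cells are MITF independent so this is a counter screen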
[13] = A375 melanoma cell viability loss, dose response, counter-screen for MITF modulator project, CellTiter-Glo luminescence, dry powder, set 9 (AID 651591); type: functional, cell-based; conditions: A-375
Nonstructural protein 1 = Nonstructural protein 1 (Influenza A virus, UniProt Q194T2); type: functional, Influenza A virus (A/California/07/2009(H1N1))
[14] = A375 melanoma cell cytotoxicity, dose response, counter-screen for MITF inhibitor project, CellTiter-Glo luminescence, dry powder, set 6 (AID 624488); type: functional, cell-based; conditions: A-375
[15] = cytotoxicity in primary human melanocytes, dose response, cytotoxicity control, cell-based, plate reader, dry powder (AID 651920); type: functional
[16] = MITF Measured in Cell-Based System Using Plate Reader - 2084-01_Inhibitor_Dose_DryPowder_Activity_Set7.; type: functional
[17] = MITF Measured in Cell-Based System Using Plate Reader - 2084-01_Inhibitor_Dose_DryPowder_Activity_Set6.; type: functional
[18] = A375 melanoma cell cytotoxicity, dose response, counter-screen for MITF inhibitor project, CellTiter-Glo luminescence, dry powder, set 7 (AID 624490); type: functional, cell-based; conditions: A-375
[19] = SK-MEL-5 parental cell viability reduction, dose response, orthogonal assay for MITF inhibitor project, CellTiter-Glo luminescence, dry powder, set 8 (AID 651586); type: functional, cell-based
[20] = CEM21 cell cytotoxicity, dose response, cytotoxicity control, plate reader, dry powder (AID 687026); type: functional, cell-based
[21] = molecular target: NAD-dependent protein deacylase sirtuin-5, mitochondrial (Homo sapiens, UniProt Q9NXA8); assay: SIRT5 desuccinylase inhibitors, dose response, biochemical, fluorescence imaging, cherry-pick, set 5 (AID 720591);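 also: desuccinylation of succinyl peptide AMC substrate read as fluorescence after trypsin release; potency of inhibitors that lower fluorescence and may act on trypsin instead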
[22] = A2780 ovarian cancer cell cytotoxicity, dose response, cytotoxicity control, plate reader, dry powder samples (AID 743046); type: functional, cell-based
[23] = A549 cell cytotoxicity, dose response, cytotoxicity control, 24 h, CellTiter-Glo luminescence, cherry-picks (AID 1053115); type: functional, cell-based; conditions: A549, 24 h
[24] = NIH:OVCAR-3 ovarian cancer cell cytotoxicity, dose response, PAX8 inhibitor project, plate reader, dry powder samples (AID 743044); type: functional, cell-based
[25] = cytotoxicity in OVCAR8 ovarian cancer cells, dose response, PAX8 project, cell-based, plate reader, dry powder samples (AID 743197); type: functional; conditions: OVCAR-8
Paired box protein Pax-8 = Paired box protein Pax-8 (Homo sapiens, UniProt Q06710); assay: inhibitors of PAX8-driven TPO luciferase reporter, dose response, RMG-I cells, cherry-pick (AID 687027); type: functional, cell-based;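 also: luciferase reporter driven by Pax8 target thyroperoxidase promoter measured by SteadyGlo luminescence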
Sequence of Paired box protein Pax-8 (Q06710 whole entry): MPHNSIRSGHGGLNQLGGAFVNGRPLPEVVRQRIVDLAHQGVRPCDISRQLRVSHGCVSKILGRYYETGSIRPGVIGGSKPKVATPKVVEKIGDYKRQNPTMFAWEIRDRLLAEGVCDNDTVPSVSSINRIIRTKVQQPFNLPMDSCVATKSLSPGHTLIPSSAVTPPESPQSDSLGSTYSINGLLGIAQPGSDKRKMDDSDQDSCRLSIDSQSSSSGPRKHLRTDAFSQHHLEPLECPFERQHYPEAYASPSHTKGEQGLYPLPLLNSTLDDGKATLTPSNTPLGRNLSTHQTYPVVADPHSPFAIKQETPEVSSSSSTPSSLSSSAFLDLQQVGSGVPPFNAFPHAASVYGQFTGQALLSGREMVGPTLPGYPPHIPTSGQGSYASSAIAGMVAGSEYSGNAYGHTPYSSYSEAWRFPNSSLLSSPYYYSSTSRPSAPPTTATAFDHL

Sequence of Nonstructural protein 1 (Q194T2 whole entry): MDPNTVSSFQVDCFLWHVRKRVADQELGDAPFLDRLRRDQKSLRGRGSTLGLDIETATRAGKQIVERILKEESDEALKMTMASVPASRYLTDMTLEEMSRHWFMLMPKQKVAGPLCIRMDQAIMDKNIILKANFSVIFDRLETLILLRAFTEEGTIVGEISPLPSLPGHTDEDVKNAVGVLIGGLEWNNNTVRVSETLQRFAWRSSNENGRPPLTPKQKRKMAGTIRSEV
Sequence of Glutathione-S-transferase (Q26513 whole entry): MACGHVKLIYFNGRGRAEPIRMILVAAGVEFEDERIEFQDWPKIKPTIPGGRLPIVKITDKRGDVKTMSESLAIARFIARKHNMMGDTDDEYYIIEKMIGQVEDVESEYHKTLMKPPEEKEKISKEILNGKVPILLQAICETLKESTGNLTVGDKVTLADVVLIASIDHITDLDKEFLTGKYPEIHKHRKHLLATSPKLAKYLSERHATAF
Sequence of Large T antigen (P03070 whole entry): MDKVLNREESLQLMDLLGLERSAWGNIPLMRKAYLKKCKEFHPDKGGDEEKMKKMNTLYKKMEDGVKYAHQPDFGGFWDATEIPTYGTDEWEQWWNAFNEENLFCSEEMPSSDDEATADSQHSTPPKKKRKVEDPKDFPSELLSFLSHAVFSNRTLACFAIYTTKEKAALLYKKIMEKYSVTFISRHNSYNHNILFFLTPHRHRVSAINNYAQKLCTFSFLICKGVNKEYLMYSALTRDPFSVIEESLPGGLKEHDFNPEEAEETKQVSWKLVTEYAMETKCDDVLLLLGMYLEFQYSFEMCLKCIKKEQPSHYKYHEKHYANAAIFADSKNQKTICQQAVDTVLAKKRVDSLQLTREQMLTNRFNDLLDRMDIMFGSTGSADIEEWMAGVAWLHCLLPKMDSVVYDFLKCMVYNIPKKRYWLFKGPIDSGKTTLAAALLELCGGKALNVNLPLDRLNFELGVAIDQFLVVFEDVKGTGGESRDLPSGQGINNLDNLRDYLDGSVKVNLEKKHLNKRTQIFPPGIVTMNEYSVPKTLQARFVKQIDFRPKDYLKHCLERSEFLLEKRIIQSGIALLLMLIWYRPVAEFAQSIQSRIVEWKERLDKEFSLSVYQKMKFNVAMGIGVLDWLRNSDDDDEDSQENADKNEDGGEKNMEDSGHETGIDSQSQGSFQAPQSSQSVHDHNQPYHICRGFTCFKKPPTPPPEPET
Sequence of Disintegrin and metalloproteinase domain-containing protein 17 (P78536 whole entry, the tested form may be a part): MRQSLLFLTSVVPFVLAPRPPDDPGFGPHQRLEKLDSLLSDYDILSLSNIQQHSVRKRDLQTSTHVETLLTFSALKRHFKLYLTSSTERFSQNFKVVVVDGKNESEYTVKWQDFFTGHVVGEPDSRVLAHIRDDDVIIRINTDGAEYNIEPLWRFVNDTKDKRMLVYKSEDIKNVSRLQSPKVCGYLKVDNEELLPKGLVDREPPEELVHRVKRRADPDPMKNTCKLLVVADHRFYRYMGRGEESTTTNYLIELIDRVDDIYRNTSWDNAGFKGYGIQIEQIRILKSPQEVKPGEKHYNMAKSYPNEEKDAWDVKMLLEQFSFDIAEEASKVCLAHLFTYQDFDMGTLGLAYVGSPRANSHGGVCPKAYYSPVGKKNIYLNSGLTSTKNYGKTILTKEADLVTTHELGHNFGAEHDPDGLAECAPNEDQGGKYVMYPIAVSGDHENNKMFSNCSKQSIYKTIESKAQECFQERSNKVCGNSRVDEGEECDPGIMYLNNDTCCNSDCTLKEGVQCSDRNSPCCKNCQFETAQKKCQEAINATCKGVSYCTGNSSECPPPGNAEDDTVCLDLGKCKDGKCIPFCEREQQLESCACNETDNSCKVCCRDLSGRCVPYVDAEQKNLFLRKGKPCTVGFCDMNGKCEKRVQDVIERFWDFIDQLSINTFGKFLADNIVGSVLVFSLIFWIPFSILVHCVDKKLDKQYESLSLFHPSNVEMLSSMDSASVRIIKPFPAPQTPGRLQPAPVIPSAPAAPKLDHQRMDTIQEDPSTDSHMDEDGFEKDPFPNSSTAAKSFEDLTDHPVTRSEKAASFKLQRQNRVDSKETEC
Sequence of NAD-dependent protein deacylase sirtuin-5, mitochondrial (Q9NXA8 whole entry): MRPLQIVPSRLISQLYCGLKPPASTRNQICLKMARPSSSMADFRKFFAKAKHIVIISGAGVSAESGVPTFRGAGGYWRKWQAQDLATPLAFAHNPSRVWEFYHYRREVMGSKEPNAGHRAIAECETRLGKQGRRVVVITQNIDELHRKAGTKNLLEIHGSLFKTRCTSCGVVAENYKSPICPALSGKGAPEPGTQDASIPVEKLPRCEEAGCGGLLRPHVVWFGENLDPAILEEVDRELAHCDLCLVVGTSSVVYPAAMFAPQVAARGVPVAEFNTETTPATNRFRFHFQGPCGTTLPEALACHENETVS
Sequence of Kallikrein-7 (P49862 whole entry): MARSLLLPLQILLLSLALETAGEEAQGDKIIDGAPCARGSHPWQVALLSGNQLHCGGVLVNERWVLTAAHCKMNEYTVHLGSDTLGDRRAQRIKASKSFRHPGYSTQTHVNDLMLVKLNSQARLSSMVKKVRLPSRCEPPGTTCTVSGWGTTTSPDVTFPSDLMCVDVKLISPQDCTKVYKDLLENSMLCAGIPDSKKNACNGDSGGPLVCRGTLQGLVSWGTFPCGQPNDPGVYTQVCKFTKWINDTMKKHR

Cc1oc2c(CN3CCCCC3)c(O)ccc2c(=O)c1-c1ccc(Br)cc1
EC50 (Kallikrein-7): 9.73 µM (active)

COc1ccc(C(Nc2cc(C)ccn2)c2ccc3ccc(C)nc3c2O)cc1 (stereo not drawn)
EC50 (Streptokinase A): > 150 µM (not active)
IC50 [1]: > 69.5 µM (inactive)
EC50 [2]: 24.7 µM (active)
EC50 (Streptococcus): 54.9 µM (active)
EC50 [3]: 14.3 µM (active)
EC50 [4]: 2.15 µM (active)

CC(=O)N1CCN(c2ccc(NCc3ccc(C)s3)cc2)CC1
IC50 (Large T antigen): 3.48 µM (active)
IC50 [5]: 29.7 µM (active)
IC50 (Protein Tat): > 100 µM (active)

COC1=C(Nc2ccccc2)C(=O)c2ccccc2C1=O
AC50 [6]: 3.54 µM (active)
AC50 [7]: 12.5 µM (active)
AC50 (INS1): 5.64 µM (active)
AC50 [8]: 12.5 µM (active)
AC50 [9]: 4.53 µM (active)
AC50 [10]: 3.1 µM (active)
AC50 [11]: 13.9 µM (active)
AC50 [12]: > 70 µM (inactive)
AC50 [13]: > 70 µM (inactive)
IC50 (Nonstructural protein 1): 12 µM (active)
AC50 [14]: 43.4 µM (active)
AC50 [15]: 41.9 µM (active)
AC50 [16]: 7.24 µM (active)
AC50 [17]: 5.17 µM (active)
AC50 [18]: 41.5 µM (active)
AC50 [19]: 6.45 µM (active)

Nc1nonc1C(=O)NCCNCc1c(OCc2ccccc2F)ccc2ccccc12
AC50 [20]: > 70 µM (inactive) and 60.8 µM (active)

CCOC(=O)C1=CCN(S(=O)(=O)c2ccc(C)cc2)C1c1cccc(Br)c1 (stereo not drawn)
AC50 [21]: > 30 µM (inactive)

COc1ccccc1-c1ccc2c(c1)[C@H]1[C@H](CCN1C(=O)C1CCCCC1)[C@@H](CO)N2
AC50 [22]: 5.38 µM (active)
AC50 [23]: 42.1 µM (active)
AC50 [24]: 18.7 µM (active)
AC50 [25]: 30.4 µM (active)
AC50 (Paired box protein Pax-8): 9.8 µM (active)
